Measurements from ChEMBL document CHEMBL1156529, “Unraveling the hidden catalytic activity of vertebrate class IIa histone deacetylases” (Proc Natl Acad Sci U S A, 2007).
Activity calls are given as the source filed them. The calls are words filed in the database; no cut-off is given here.

What was measured:
[1] = molecular target: T1, Histone deacetylase 4 (Homo sapiens, UniProt P56524); assay: Inhibition of flag-tagged HDAC4 expressed in HEK293 cells upto 10,000 nM by Biomol assay; type: cell-based
[2] = molecular target: T1, Histone deacetylase 4; assay: Inhibition of HDAC4 catalytic domain expressed in HEK293 cells upto 10,000 nM by Biomol assay; type: cell-based
[3] = test system: Histone deacetylase 5 (Homo sapiens), Q9UQL6 [H1006Y]; assay: Inhibition of HDAC5 H1006Y mutant expressed in HEK293 cells; type: cell-based
[4] = test system: T2, Histone deacetylase 7 (Homo sapiens), Q8WUI4 [H843Y]; assay: Inhibition of HDAC7 H843Y mutant expressed in HEK293 cells; type: cell-based
T2 sequence (whole entry): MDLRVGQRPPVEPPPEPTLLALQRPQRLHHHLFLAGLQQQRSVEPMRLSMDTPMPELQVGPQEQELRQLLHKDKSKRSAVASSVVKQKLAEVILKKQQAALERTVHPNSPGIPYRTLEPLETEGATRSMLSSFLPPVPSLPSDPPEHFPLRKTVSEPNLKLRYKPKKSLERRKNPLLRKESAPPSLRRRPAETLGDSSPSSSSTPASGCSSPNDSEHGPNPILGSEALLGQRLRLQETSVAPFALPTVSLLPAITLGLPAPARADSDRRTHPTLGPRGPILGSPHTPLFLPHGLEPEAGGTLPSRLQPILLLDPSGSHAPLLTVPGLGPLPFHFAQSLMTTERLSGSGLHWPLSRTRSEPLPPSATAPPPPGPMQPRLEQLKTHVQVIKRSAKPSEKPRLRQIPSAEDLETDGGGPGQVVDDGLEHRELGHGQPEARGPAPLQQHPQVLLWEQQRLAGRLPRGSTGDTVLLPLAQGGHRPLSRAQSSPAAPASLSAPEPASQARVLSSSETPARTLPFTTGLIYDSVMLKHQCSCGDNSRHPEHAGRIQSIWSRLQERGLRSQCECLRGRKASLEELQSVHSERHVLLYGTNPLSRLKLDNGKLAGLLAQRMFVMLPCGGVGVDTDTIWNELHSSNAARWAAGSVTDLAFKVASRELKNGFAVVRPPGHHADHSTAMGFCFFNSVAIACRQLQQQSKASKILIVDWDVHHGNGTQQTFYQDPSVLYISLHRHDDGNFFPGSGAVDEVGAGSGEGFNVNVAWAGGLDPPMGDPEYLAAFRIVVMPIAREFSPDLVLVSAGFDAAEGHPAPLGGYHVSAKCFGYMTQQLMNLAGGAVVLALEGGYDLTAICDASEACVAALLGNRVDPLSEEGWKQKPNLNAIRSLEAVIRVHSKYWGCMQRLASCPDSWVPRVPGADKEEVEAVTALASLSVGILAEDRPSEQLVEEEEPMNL

[5] = molecular target: T1, Histone deacetylase 4; assay: Inhibition of flag-tagged HDAC4 by pull-down assay
[6] = molecular target: T1, Histone deacetylase 4; assay: Inhibition of flag-tagged HDAC4 by Biomol assay

T1 sequence (P56524 whole entry, the tested form may be a part): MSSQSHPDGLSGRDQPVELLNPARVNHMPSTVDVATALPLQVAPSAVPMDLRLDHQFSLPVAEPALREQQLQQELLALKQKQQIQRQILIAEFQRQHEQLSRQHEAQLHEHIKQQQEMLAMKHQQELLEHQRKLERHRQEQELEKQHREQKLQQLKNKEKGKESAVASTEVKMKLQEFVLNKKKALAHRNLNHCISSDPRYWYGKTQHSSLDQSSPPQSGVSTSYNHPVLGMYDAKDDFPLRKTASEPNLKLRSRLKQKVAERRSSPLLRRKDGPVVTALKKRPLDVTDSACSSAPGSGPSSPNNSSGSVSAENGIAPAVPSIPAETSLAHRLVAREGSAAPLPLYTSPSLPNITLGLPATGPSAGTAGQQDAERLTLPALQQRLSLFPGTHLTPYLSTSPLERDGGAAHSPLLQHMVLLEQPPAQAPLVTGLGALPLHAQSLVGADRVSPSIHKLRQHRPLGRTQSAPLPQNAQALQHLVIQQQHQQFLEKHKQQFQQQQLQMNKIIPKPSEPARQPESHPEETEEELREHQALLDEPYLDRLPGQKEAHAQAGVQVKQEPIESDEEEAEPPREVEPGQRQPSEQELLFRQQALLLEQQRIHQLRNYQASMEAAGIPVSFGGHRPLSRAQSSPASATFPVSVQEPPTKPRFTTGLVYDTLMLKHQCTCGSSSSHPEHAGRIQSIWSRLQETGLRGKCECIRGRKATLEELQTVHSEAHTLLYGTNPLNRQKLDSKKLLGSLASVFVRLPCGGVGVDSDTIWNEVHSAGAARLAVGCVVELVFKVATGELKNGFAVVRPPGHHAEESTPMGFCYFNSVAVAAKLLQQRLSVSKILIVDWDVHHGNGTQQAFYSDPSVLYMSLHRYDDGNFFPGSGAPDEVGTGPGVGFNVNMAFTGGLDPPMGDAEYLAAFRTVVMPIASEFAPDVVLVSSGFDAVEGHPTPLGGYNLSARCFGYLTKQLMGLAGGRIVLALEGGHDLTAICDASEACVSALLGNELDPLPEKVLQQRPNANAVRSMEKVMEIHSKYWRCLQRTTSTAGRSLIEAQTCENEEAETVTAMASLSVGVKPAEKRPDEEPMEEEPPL
Chain of Histone deacetylase 5 (Homo sapiens), Q9UQL6 [H1006Y] (Q9UQL6 whole entry H1006Y): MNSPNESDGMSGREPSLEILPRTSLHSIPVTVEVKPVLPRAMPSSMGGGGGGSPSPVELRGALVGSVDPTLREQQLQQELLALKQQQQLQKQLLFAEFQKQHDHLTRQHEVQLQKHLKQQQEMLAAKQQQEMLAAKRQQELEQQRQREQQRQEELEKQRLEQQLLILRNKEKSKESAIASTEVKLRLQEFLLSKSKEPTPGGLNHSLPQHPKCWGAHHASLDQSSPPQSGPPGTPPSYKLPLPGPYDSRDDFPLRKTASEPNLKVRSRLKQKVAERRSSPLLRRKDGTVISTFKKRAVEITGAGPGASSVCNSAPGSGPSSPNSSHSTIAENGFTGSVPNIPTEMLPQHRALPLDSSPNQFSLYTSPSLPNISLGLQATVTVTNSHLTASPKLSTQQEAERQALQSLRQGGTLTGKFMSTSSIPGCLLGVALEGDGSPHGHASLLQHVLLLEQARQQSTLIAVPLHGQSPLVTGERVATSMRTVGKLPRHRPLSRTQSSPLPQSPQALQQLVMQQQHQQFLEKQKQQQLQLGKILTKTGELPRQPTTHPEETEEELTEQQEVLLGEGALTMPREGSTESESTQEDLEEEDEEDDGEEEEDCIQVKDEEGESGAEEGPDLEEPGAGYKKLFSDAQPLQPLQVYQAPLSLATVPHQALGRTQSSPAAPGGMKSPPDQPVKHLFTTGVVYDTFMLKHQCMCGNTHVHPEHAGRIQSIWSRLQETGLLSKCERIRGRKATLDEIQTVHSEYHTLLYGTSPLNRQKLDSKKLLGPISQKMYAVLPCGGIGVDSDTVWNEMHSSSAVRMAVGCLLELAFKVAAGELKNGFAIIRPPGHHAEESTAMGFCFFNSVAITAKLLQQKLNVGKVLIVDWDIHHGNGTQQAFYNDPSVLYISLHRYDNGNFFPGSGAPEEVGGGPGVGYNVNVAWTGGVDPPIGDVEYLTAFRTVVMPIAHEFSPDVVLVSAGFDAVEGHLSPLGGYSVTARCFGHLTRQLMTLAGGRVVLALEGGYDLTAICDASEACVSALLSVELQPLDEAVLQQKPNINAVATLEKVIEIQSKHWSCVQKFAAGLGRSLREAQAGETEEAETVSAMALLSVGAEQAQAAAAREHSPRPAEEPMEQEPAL

Row | Structure (SMILES) | Activity [1] | Activity [2] | Activity [3] | Activity [4] | IC50 [5] [nM] | IC50 [6] [nM]
1 | CCC(=O)CCCCC[C@H](NC(=O)[C@H]1CCCCN1C(=O)[C@@H](NC(=O)[C@@H](N)Cc1cn(OC)c2ccccc12)[C@H](C)CC)C(=O)O | inactive | inactive |  |  |  | 
2 | CCC(=O)CCCCC[C@@H]1NC(=O)[C@H]2CCCCN2C(=O)[C@H]([C@@H](C)CC)NC(=O)[C@H](Cc2cn(OC)c3ccccc23)NC1=O | inactive | inactive | inactive | inactive |  | 
3 | CCC(=O)CCCCC[C@H](NC(=O)[C@H]1CCCCN1C(=O)[C@@H](NC(=O)[C@@H](N)Cc1cn(OC)c2ccccc12)[C@@H](C)CC)C(=O)O |  |  |  |  | 152 | 88
4 | O=C(/C=C/c1ccc(CN(CCO)CCc2c[nH]c3ccccc23)cc1)NO |  |  | Active | Active |  | 
